Assay results taken from paper PMC11082890, “Phenazine Cations as Anticancer Theranostics” (Journal of the American Chemical Society, 2024).

How the values were obtained:
Assay in all cases: MTT cytotoxicity assay, 48 h
Format in all cases: cell-based
[1] = test system: A2780CIS human ovarian cisplatin resistant cells; conditions: 48 h treatment, value (S.D.)
Experimental: (§1) First, the cytotoxicity of 1^2+ and 2^2+ toward several cancer cell lines was examined. The viability of cells exposed to their chloride salts was assessed by an MTT (3-(4,5-dimethylthiazol-2-yl)-2,5-diphenyltetrazolium bromide) assay, and the common chemotherapeutic agent cisplatin was employed as a positive control, Figure 3.
(§2) S2. Tissue Culture and Microscopy Methods
(§3) Cell media was purchased sterile from Sigma-Aldrich. A2780 human ovarian cancer cells and A2780CIS human ovarian cisplatin resistant cells were cultured in RPMI-1640 medium. MCF7 human breast cancer cells, T24 human bladder cancer cells and HEK293 human embryonic kidney cells were cultured in DMEM medium. All growth medium was supplemented with 10 % fetal bovine serum (FBS), 2 mM L-Glutamine, 100 IU mL-1 penicillin and 100 μg mL-1 streptomycin and sterile filtered before use. Cell cultures were grown by incubation at 37 ᵒC with 5 % CO2 and were frequently passaged with trypsin when confluency of around 80 % was reached.
(§4) All cells used were at passage numbers below 50.
(§5) S2b. Preparation of Compounds
(§6) Stock solutions of compounds were solubilized in 10 % PBS (Phosphate Buffer Saline) and 90 % media.
(§7) Solutions were then sterile filtered through a 0.22 μm filter prior to use.
(§8) S2c. Cytotoxicity (MTT Assay) and Determination of IC50 Values
(§9) MTT (3-(4,5-Dimethylthiazol2-yl)-2,5-diphenyltetrazolium bromide)) is a yellow tetrazolium salt that is reduced to formazan in metabolically active cells. Therefore, the purple coloured formazan can be dissolved and quantified through absorbance as a measure of cell viability. Cells were seeded in 48 well plates at a density of 5 x 10^4 cells per well and incubated for 24 hours prior to treatment. After 24 hours, compound (10 % PBS:
(§10) 90 % medium) was added over a concentration gradient from 0.1 to 100 μM with each concentration in triplicate. Some wells were treated with a concentration range of cisplatin as a positive control. Cells were incubated with the relevant concentrations of compound for 48 hours, after which the media was removed and replaced with MTT (0.5 mg mL-1 in serum-free medium) for a period of 30-45 minutes. The MTT solution was then carefully removed and the formazan eluted with isopropanol (130 μL per well). 100 μL from each well was transferred into a 96 well plate to enable quantification of cell viability using a plate reader measuring absorbance at 570 nm. An average absorbance was obtained for each concentration and the cell viability was then calculated as a percentage of the untreated negative control wells. A graph of cell viability against concentration was plotted and the IC50 (the concentration at which the cell viability is 50 %) determined by interpolation. The IC50 values are reported as an average of at least 3 independent biological replicates. […]
(§11) All plates were then incubated for another 24 hours following light treatment. Media was then removed from each well and replaced with MTT (0.5 mg mL-1 in serum-free medium) for 30-45 minutes. […]
(§12) The data was then plotted as a graph of cell viability against concentration to determine the IC50 values by interpolation before and after light treatment.

[2] = test system: HEK293 human embryonic kidney cells; conditions: HEK293 noncancerous cells, 48 h treatment, value (S.D.)
Experimental: as §1, §2, §3, §4, §5, §6, §7, §8, §9, §10, §11, §12

[3] = test system: T24 human bladder cancer cells; conditions: T24, 48 h treatment, value (S.D.)
Experimental: as §1, §2, §3, §4, §5, §6, §7, §8, §9, §10, §11, §12

[4] = test system: MCF7 human breast cancer cells; conditions: MCF7, 48 h treatment, value (S.D.)
Experimental: as §1, §2, §3, §4, §5, §6, §7, §8, §9, §10, §11, §12

[5] = test system: A2780 human ovarian cancer cells; conditions: A2780, 48 h treatment, value (S.D.)
Experimental: as §1, §2, §3, §4, §5, §6, §7, §8, §9, §10, §11, §12

Q: Which IC50 [1] does the source give for N.N.[Cl][Pt][Cl] [cisplatin] here?
A: 19 µM

Q: What about the IC50 [2] of the same compound?
A: 5 µM

Q: What about the IC50 [3] of the same compound?
A: 3 µM

Q: What about the IC50 [4] of the same compound?
A: 26 µM

Q: And the IC50 [5]?
A: 1.3 µM
